The test system of this assay is ex vivo porcine corneas. The assay can be described thus: Ex vivo tensile testing of cross-linked porcine corneas (elastic modulus). Details: species or system domestic pig (Sus domesticus). On the procedure: Eyes of the domestic pig (Sus domesticus) are collected from a local abattoir 0-4 hours post-mortem. Eyes are cleaned of excess tissue and fat and washed in PBS containing 200 U penicillin and 0.2 mg/ml streptomycin and 5 μg/ml amphotericin B (Merch Life Science, Dorset, UK). The eyes are stored in a petri dish containing the PBS antibiotic/antimycotic solution, corneas facing up, at 4° C. overnight.
The porcine eyes are removed from 4° C. and allowed to warm to room temperature. One-to-two drops of Minims Proxymetacaine hydrochloride 0.5% w/v (Bosch & Lomb, Surrey, UK) were applied to the cornea for 15 minutes, with additional drops added ever 5 minutes and then 2-3 minutes before treatment. After which a suction ring (E.Janach, Como, Italy) was attached to the cornea (FIG. 1) and 200 μl of BS^3 solution was added inside the ring. Eyes were incubated for 5, 15 or 30 mins at 37° C.; after which the BS^3 solution was aspirated and retained for pH measurement, and eyes were rinsed in PBS then stored, cornea facing down, in a 6-well plate with fresh PBS until tensile measurement.
Suction rings were applied to porcine corneas as in FIG. 1 and 18% ethanol solution was applied for 30 seconds before being adsorbed by a sponge spear. The cornea was then rinsed with PBS. After this the epithelium was removed with a corneal scraper and sponge spear. Once the epithelium was removed 0.1% riboflavin (Vibex Rapid™, Avedro Inc, MA, USA) was applied every 3 mins. Riboflavin was applied for a total of 30 mins for the Dresden protocol and 15 minutes for the Accelerated protocol.
After riboflavin treatment eyes were cross-linked by UVA light using and KXL System (Avedro Inc). UV light was applied at 3 mW/cm^2 for 30 mins for the Dresden protocol and 6 mW/cm^2 for 15 mins for the Accelerated protocol for a total applied energy of 5.4 J/cm^2 for both protocols.
The anterior section of the eye was removed by cutting around the globe 5-10 mm posteriorly from the limbus. The iris and ciliary process were removed from the posterior section of the tissue leaving only sclera and cornea. A strip of tissue was cut using a custom-made replaceable razor blade jig. Tissue thickness and width (determined as the distance between cutting edges) were measured with calipers.
The tissue strip was mounted in the grips of a Univert tensile tester (CellScale, Ontario, Canada) with a 50 N load cell. Tissue was stretched at a rate of 125 μm/s until failure. Data was captured at 1 Hz. Stress-strain curves were plotted and the elastic modulus was determined at a range of strains: 5-10%, 10-15%, 20-25% and 30-35%. Data were trimmed to 3% from the strain at ultimate tensile strain and 6 term polynomial equations we determined from each curve. […] These polynomials represent the stress-stain response of each cornea and were used to create an average stress-strain curve for the samples.
Ex vivo mechanical data were compared by One-way ANOVA and Tukey's post-hoc.

[1] abbreviates: Dresden UV/riboflavin protocol, strain range 5-10%.
Where [2] appears, read: Accelerated UV/Riboflavin protocol, strain range 5-10%.

Structures are written as SMILES. Several values for one entry are separate records, joined by “and”; a condition that tells them apart may be missing. Identical values can stand only once.

For the compound `Cc1cc2nc3c(=O)[nH]c(=O)nc-3n(C[C@H](O)[C@H](O)[C@H](O)CO)c2cc1C` [Dresden, riboflavin, reference compound], the “Percentage Change in Modulus Compared to Control” value by setting is: under setting [1], 158%; (Dresden UV/riboflavin protocol, strain range 10-15%) 123% and 124%; (Dresden UV/riboflavin protocol, strain range 20-25%) 62%; (Dresden UV/riboflavin protocol, strain range 30-35%) 34%. Under setting [1], this compound displayed an elastic modulus of 7.99±4.58 MPa.
For the compound `Cc1cc2nc3c(=O)[nH]c(=O)nc-3n(C[C@H](O)[C@H](O)[C@H](O)CO)c2cc1C` [Accelerated, riboflavin, reference compound], the “Percentage Change in Modulus Compared to Control” value came to 79% under setting [2]; 46% (Accelerated UV/riboflavin protocol, strain range 10-15%); 28% (Accelerated UV/riboflavin protocol, strain range 20-25%); 16% (Accelerated UV/riboflavin protocol, strain range 30-35%). The “difference in elastic modulus compared to control” value under setting [2] is listed as “not significantly different”. The same compound came in with an elastic modulus under setting [2] of 5.45±2.97 MPa.

The values are drawn from patent US20250295631A1, “NOVEL TREATMENT” (University of Liverpool, priority 2022, published 2025).
